Assay results taken from patent US20110201568A1, “PHYOTOCHEMICAL COMPOSITION AND A PROCESS THEREOF” (priority 2008, published 2011).
Converted amounts (≈) assume the structure as drawn. Like-named read-outs stand apart in the source and are kept apart here. Blank lines part the entries; values can stand above or below the compound they belong to.

Experiments:
[1] = tested on: Helicobacter pylori; assay: Anti Helicobacter pylori activity, overall observations; type: cell-based; details: strains 80A and ATCC 43504
[2] = tested on: Helicobacter pylori standard strain ATCC 43504; assay: MIC/MBC microbroth dilution assay, strain ATCC 43504; type: cell-based; details: ATCC43504, cell count ~10^6-10^7 CFU/ml
Experimental: (§1) • MICs of the two samples were determined employing one clinical (80A) and one standard (ATCC 43504) strain (Osato, 2000). • Two-fold serial dilutions of the samples were performed in 96-well microtitre plate. • Plates were kept for appropriate time in Incubator under optimum growth condition. • Following incubation, the plates were examined visually, and the lowest concentration showing complete inhibition of growth was recorded as the MIC of the respective sample.
(§2) • Aliquots of culture in which no growth had been detected were taken from the wells of the above microtitre plates and used to streak on fresh agar plates. • MBCs were determined by visual inspection of such plates after further incubation and the point where no growth (less than 10 colony) appeared was considered as the MBCs.

[3] = tested on: Helicobacter pylori standard strain ATCC 43504; assay: Anti Helicobacter pylori disc diffusion sensitivity assay, standard strain ATCC 43504; type: cell-based; details: 40 ng/disc (standard drug)
Experimental: (§3) For water containing sample, discs were first placed on the plate and then 5-10 μl of each sample, was added. The results are shown in below table: 10.

[4] = tested on: Helicobacter pylori clinical strain 80A; assay: MIC/MBC microbroth dilution assay, strain 80A; type: cell-based; details: cell count ~10^6-10^7 CFU/ml
Experimental: as §1, §2

[5] = tested on: Helicobacter pylori clinical strain 80A; assay: Anti Helicobacter pylori disc diffusion sensitivity assay, clinical strain 80A; type: cell-based; details: 10 ng/disc (standard drug)
Experimental: as §3

[6] = biological target: porcine pancreatic elastase (Sus scrofa, UniProt P00772); assay: Elastase inhibition assay; type: biochemical
porcine pancreatic elastase, sequence (P00772 27-266): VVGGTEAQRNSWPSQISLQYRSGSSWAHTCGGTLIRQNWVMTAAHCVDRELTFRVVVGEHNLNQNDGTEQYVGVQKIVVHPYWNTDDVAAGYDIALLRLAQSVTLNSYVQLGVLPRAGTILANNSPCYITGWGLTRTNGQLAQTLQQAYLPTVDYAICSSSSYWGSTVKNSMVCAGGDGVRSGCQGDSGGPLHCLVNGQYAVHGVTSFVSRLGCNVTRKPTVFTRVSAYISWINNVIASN
Experimental: In brief, 233 μl of each test solutions/reference standard (various concentrations) in 100 mM Tris-HCl pH8.0 and 7 μl of enzyme (porcine pancreatic elastase, 0.84 units/ml) solution was incubated at 37° C. for 15 mins. Following incubation, 20 μl of substrate (n-succinyl-ala-ala-ala-p-nitroanilide) solution was added and incubated at 37° C. for 30 mins. The absorbance was measured at 405 nm. A control reaction was carried out without the test sample. The percentage inhibition was calculated by the equation [absorbance (control)−absorbance (test)]/absorbance (control)×100]. The IC50 values were determined using log-probit analysis.

[7] = tested on: cold stress induced ulcer; assay: Cold stress induced ulcer model; type: in vivo, albino Wistar rats
[8] = tested on: pylorus ligation induced ulcer; assay: Pylorus ligation induced ulcer model; type: in vivo, albino Wistar rats; details: 10 mg/kg; mean ± SEM, n = 6
Text: Details of the study are provided in the below table: 4. [table]

[9] = porcine pancreatic elastase, log-probit analysis, read-out: IC50 in elastase inhibition assay (converted)

Compound: CCCCCCCCCCCCCCCCCCCCCCOC(=O)/C=C/c1ccc(O)c(O)c1 [Docosyl caffeate (2), docosyl caffeate]
IC50 [6, 9]: 2860 nM

Compound: COc1ccc2[nH]c([S+]([O-])Cc3ncc(C)c(OC)c3C)nc2c1 (centres unmarked) [Omeprazole]
Ulcer index ([7]; 10 mg/kg, mean ± SEM, n = 6): 0.67 ± 0.49
pH ([7]; 10 mg/kg, mean ± SEM, n = 6): 6.50 ± 0.22
pH of stomach ([7]; comparison Table 12 remark, ulcer model not specified): the pH to more than 6
Gastric content [8]: 2.42 ± 0.24 mL
Total acidity [8]: 15.33 ± 0.92 mEq/L/100 g
Ulcer index [8]: 3.33 ± 1.38
pH [8]: 6.89 ± 0.14

Compound: C[C@H]1[C@H](C)CC[C@]2(C(=O)O)CC[C@]3(C)C(=CC[C@@H]4[C@@]5(C)CC[C@H](O)C(C)(C)[C@@H]5CC[C@]43C)[C@H]12 [Ursolic acid]
IC50 [6]: 23600 nM

Second part, led by results:

MIC [2]: 0.025 µg/mL (≈ 0.0334 µM)
MIC [4]: 0.013 µg/mL (≈ 0.0174 µM)
Compound: CC[C@H]1OC(=O)[C@H](C)[C@@H](O[C@H]2C[C@@](C)(OC)[C@@H](O)[C@H](C)O2)[C@H](C)[C@@H](O[C@@H]2O[C@H](C)C[C@H](N(C)C)[C@H]2O)[C@](C)(OC)C[C@@H](C)C(=O)[C@H](C)[C@@H](O)[C@]1(C)O [Clarithromycin]
anti Helicobacter pylori activity (disc diffusion observation) [1]: showed appropriate zone of inhibition
MBC [2]: 0.05 µg/mL (≈ 0.0668 µM)
Inhibition Zone Diameter in strain ATCC 43504 [3]: 1.8-2.0 cm
MBC [4]: 0.025 µg/mL (≈ 0.0334 µM)
Inhibition Zone Diameter in strain 80A [5]: 1.8-2.0 cm

IC50 [6, 9]: 2150 nM
Compound: CCCCCCCCCCCCCCCCCCCCOC(=O)/C=C/c1ccc(O)c(O)c1 [Eicosanyl caffeate(1), eicosanyl caffeate]
